Reference: patent publication US9694016B2 (Novartis AG, priority 2013, dated 2017)

Target: b-Raf (V600E) (Homo sapiens (Human), UniProt P15056, V600E)
Conditions: read-out: b-Raf IC-50; AlphaScreen, 60 min pre-incubation, reaction 3 hours at room temperature

b-Raf (V600E), sequence (P15056 whole entry V600E): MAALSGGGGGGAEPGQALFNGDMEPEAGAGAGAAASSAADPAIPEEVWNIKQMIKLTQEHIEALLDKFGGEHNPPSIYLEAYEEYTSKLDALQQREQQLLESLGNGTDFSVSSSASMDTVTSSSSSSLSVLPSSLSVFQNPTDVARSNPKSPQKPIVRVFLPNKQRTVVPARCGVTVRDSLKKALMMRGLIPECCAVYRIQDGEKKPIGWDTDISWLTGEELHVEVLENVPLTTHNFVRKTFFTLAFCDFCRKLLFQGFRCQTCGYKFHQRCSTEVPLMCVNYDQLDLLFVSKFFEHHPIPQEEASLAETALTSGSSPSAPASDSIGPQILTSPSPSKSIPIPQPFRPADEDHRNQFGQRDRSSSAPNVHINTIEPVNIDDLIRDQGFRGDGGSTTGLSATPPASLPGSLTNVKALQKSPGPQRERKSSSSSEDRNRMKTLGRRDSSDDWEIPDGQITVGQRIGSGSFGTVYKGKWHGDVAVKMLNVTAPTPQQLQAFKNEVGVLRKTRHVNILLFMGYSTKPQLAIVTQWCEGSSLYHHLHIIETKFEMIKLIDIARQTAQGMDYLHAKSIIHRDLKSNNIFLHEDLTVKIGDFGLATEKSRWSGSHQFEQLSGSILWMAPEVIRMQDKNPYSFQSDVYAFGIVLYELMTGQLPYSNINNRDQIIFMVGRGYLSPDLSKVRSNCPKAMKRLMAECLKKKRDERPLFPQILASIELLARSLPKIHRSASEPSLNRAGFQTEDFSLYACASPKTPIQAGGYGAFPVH

Row | SMILES | IC50
1 | Cc1ncc(NC(=O)c2ccnc(C(C)(C)O)c2)cc1-c1cnc(OC2CC3(COC3)C2)c(N2CCOCC2)c1 [Example 964, N-(6′-(2-oxaspiro[3.3]heptan-6-yloxy)-2-methyl-5′-morpholino-[3,3′-bipyridin]-5-yl)-2-(2-hydroxypropan-2-yl)isonicotinamide] | 8.13 nM
2 | Cc1ncc(NC(=O)c2ccnc(C3CC3)c2)cc1-c1cnc(OC2CC3(COC3)C2)c(N2CCOCC2)c1 [Example 966, N-(6′-(2-oxaspiro[3.3]heptan-6-yloxy)-2-methyl-5′-morpholino-[3,3′-bipyridin]-5-yl)-2-cyclopropylisonicotinamide] | 1.35 nM
3 | Cc1ncc(NC(=O)c2ccnc(C(C)(C)C#N)c2)cc1-c1cnc(OC2CC3(COC3)C2)c(N2CCOCC2)c1 [Example 967, N-(6′-(2-oxaspiro[3.3]heptan-6-yloxy)-2-methyl-5′-morpholino-[3,3′-bipyridin]-5-yl)-2-(2-cyanopropan-2-yl)isonicotinamide] | 5.74 nM
4 | Cc1ncc(NC(=O)c2cc(C(C)(C)F)ccn2)cc1-c1cnc(OC2CC3(COC3)C2)c(N2CCOCC2)c1 [Example 968, N-(6′-(2-oxaspiro[3.3]heptan-6-yloxy)-2-methyl-5′-morpholino-[3,3′-bipyridin]-5-yl)-4-(2-fluoropropan-2-yl)picolinamide] | 3.72 nM
5 | Cc1ncc(NC(=O)c2cc(C(C)(C)O)ccn2)cc1-c1cnc(OC2CC3(COC3)C2)c(N2CCOCC2)c1 [Example 969, N-(6′-(2-oxaspiro[3.3]heptan-6-yloxy)-2-methyl-5′-morpholino-[3,3′-bipyridin]-5-yl)-4-(2-hydroxypropan-2-yl)picolinamide] | 18 nM
6 | Cc1ncc(NC(=O)c2cc(C(C)(C)C#N)ccn2)cc1-c1cnc(OC2CC3(COC3)C2)c(N2CCOCC2)c1 [Example 970, N-(6′-(2-oxaspiro[3.3]heptan-6-yloxy)-2-methyl-5′-morpholino-[3,3′-bipyridin]-5-yl)-4-(2-cyanopropan-2-yl)picolinamide] | 8.79 nM
7 | Cc1ncc(NC(=O)c2cc(C(C)(C)F)ccn2)cc1-c1cnc(OCCO)c(N2CCOCC2)c1 [Example 971, 4-(2-fluoropropan-2-yl)-N-(6′-(2-hydroxyethoxy)-2-methyl-5-morpholino-[3,3′-bipyridin]-5-yl)picolinamide] | 8.27 nM
8 | Cc1ncc(NC(=O)c2cc(C(C)(C)O)ccn2)cc1-c1cnc(OCCO)c(N2CCOCC2)c1 [Example 972, N-(6′-(2-hydroxyethoxy)-2-methyl-5-morpholino-[3,3′-bipyridin]-5-yl)-4-(2-hydroxypropan-2-yl)picolinamide] | 37 nM
9 | Cc1ncc(NC(=O)c2cc(C(C)(C)C#N)ccn2)cc1-c1cnc(OCCO)c(N2CCOCC2)c1 [Example 973, 4-(2-cyanopropan-2-yl)-N-(6′-(2-hydroxyethoxy)-2-methyl-5′-morpholino-[3,3′-bipyridin]-5-yl)picolinamide] | 15.8 nM
10 | Cc1ncc(NC(=O)c2cc(C(C)(F)F)ccn2)cc1-c1cnc(OCCO)c(N2CCOCC2)c1 [Example 974, 4-(1,1-difluoroethyl)-N-(6′-(2-hydroxyethoxy)-2-methyl-5-morpholino-[3,3′-bipyridin]-5-yl)picolinamide] | 2.78 nM
11 | CCOc1ncc(-c2cc(NC(=O)c3cccc(S(C)(=N)=O)c3)ccc2C)cc1N1CCOCC1 (stereo not shown) [Example 975, N-(3-(6-ethoxy-5-morpholinopyridin-3-yl)-4-methylphenyl)-3-(S-methylsulfonimidoyl)benzamide] | 1.81 nM
12 | Cc1ncc(NC(=O)c2cccc(C(O)C(F)(F)F)c2)cc1-c1cnc(OC2CCOCC2)c(N2CCOCC2)c1 (stereo not shown) [Example 977, N-(2-methyl-5′-morpholino-6′-((tetrahydro-2H-pyran-4-yl)oxy)[3,3′-bipyridin]-5-yl)-3-(2,2,2-trifluoro-1-hydroxyethyl)benzamide] | 4.21 nM
13 | Cc1ncc(NC(=O)c2ccnc(C(C)(C)O)c2)cc1-c1cnc(OC(F)F)c(N2CCOCC2)c1 [Example 979, N-(6′-(difluoromethoxy)-2-methyl-5′-morpholino-[3,3′-bipyridin]-5-yl)-2-(2-hydroxypropan-2-yl)isonicotinamide] | 13.6 nM
14 | Cc1ncc(NC(=O)c2cc(C(C)(C)C#N)ccn2)cc1-c1cnc(OC(F)F)c(N2CCOCC2)c1 [Example 981, 4-(2-cyanopropan-2-yl)-N-(6′-(difluoromethoxy)-2-methyl-5′-morpholino-[3,3′-bipyridin]-5-yl)picolinamide] | 7.65 nM
15 | CCC(F)(F)c1cc(C(=O)Nc2cnc(C)c(-c3cnc(OC(F)F)c(N4CCOCC4)c3)c2)ccn1 [Example 983, N-(6′-(difluoromethoxy)-2-methyl-5-morpholino-[3,3′-bipyridin]-5-yl)-2-(1,1-difluoropropyl)isonicotinamide] | 2.99 nM
16 | Cc1ncc(NC(=O)c2cccc(C(F)(F)F)c2)cc1-c1cnc(OC[C@@H](C)O)c(N2CCOCC2)c1 [Example 984, (R)—N-(6′-(2-hydroxypropoxy)-2-methyl-5′-morpholino-[3,3′-bipyridin]-5-yl)-3-(trifluoromethyl)benzamide] | 2.28 nM
17 | Cc1ncc(NC(=O)c2cccc(C(F)(F)F)c2)cc1-c1cnc(N(C)CCO)c(N2CCOCC2)c1 [Example 986, N-(6′-((2-hydroxyethyl)(methyl)amino)-2-methyl-5′-morpholino-[3,3′-bipyridin]-5-yl)-3-(trifluoromethyl)benzamide] | 0.83 nM
18 | Cc1ccc(NC(=O)c2ccnc(S(C)(=O)=O)c2)cc1-c1cnc(OC[C@H](C)O)c(N2CCOCC2)c1 [Example 989, (S)—N-(3-(6-(2-hydroxypropoxy)-5-morpholinopyridin-3-yl)-4-methylphenyl)-2-(methylsulfonyl)isonicotinamide] | 1.96 nM
19 | Cc1ccc(NC(=O)c2ccnc(C(F)(F)F)c2)cc1-c1cc(NC[C@@H](C)O)nc(N2CCOCC2)c1 [Example 991, (R)—N-(3-(2-((2-hydroxypropyl)amino)-6-morpholinopyridin-4-yl)-4-methylphenyl)-2-(trifluoromethyl)isonicotinamide] | 2.36 nM
20 | Cc1ncc(NC(=O)c2cccc(C(F)(F)F)c2)cc1-c1cnc(CC2(O)CCOCC2)c(N2CCOCC2)c1 [Example 993, N-(6′-((4-hydroxytetrahydro-2H-pyran-4-yl)methyl)-2-methyl-5′-morpholino-[3,3′-bipyridin]-5-yl)-3-(trifluoromethyl)benzamide] | 9.66 nM
21 | Cc1ccc(NC(=O)c2ccnc(C(C)(C)C#N)c2)cc1-c1cnc(OCCO)c(N2CCOCC2)c1 [Example 998, 2-(2-cyanopropan-2-yl)-N-(3-(6-(2-hydroxyethoxy)-5-morpholinopyridin-3-yl)-4-methylphenyl)isonicotinamide] | 3 nM
22 | COC(=O)NC[C@@H](C)Oc1ncc(-c2cc(NC(=O)c3cccc(C(F)(F)F)c3)cnc2C)cc1N1CCOCC1 [Example 1003, (R)-methyl(2-((2′-methyl-5-morpholino-5′-(3-(trifluoromethyl)benzamido)-[3,3′-bipyridin]-6-yl)oxy)propyl)carbamate] | 4.12 nM

Now from value to compound:

Row | IC50 | SMILES
23 | 1.86 nM | Cc1ncc(NC(=O)c2ccnc(C(F)(F)F)c2)cc1-c1cnc(OC(F)F)c(N2CCOCC2)c1 [Example 978]
24 | 1.99 nM | Cc1ncc(NC(=O)c2ccnc(C(C)(F)F)c2)cc1-c1cnc(OC(F)F)c(N2CCOCC2)c1 [Example 980, 2-(1,1-difluoroethyl)-N-(6′-(difluoromethoxy)-2-methyl-5′-morpholino-[3,3′-bipyridin]-5-yl)isonicotinamide]
25 | 2.44 nM | Cc1ncc(NC(=O)c2ccnc(C(F)F)c2)cc1-c1cnc(OC(F)F)c(N2CCOCC2)c1 [Example 982, N-(6′-(difluoromethoxy)-2-methyl-5′-morpholino-[3,3′-bipyridin]-5-yl)-2-(difluoromethyl)isonicotinamide]
26 | 2.01 nM | Cc1ncc(NC(=O)c2cccc(C(F)(F)F)c2)cc1-c1cnc(O[C@@H](C)CO)c(N2CCOCC2)c1 [Example 985, (S)—N-(6′-((1-hydroxypropan-2-yl)oxy)-2-methyl-5′-morpholino-[3,3′-bipyridin]-5-yl)-3-(trifluoromethyl)benzamide]
27 | 2.63 nM | CNC(=O)c1ncc(-c2cc(NC(=O)c3ccnc(C(C)(F)F)c3)ccc2C)cc1N1CCOCC1 [Example 987, 5-(5-(2-(1,1-difluoroethyl)isonicotinamido)-2-methylphenyl)-N-methyl-3-morpholinopicolinamide]
28 | 5.41 nM | Cc1ncc(NC(=O)c2ccnc(C(C)(C)F)c2)cc1-c1cnc(OC[C@H](C)O)c(N2CCOCC2)c1 [Example 990, (S)-2-(2-fluoropropan-2-yl)-N-(6′-(2-hydroxypropoxy)-2-methyl-5-morpholino-[3,3′-bipyridin]-5-yl)isonicotinamide]
29 | 1.63 nM | Cc1ncc(NC(=O)c2cccc(C(F)(F)F)c2)cc1-c1cnc(OCC2COCCO2)c(N2CCOCC2)c1 (stereo not shown) [Example 992]
30 | 2 nM | Cc1ccc(NC(=O)c2ccnc(C(C)(C)F)c2)cc1-c1cnc(OCCO)c(N2CCOCC2)c1 [Example 997, 2-(2-fluoropropan-2-yl)-N-(3-(6-(2-hydroxyethoxy)-5-morpholinopyridin-3-yl)-4-methylphenyl)isonicotinamide]
31 | 0.91 nM | Cc1ccc(NC(=O)c2ccnc(C3CC3)c2)cc1-c1cnc(OCCO)c(N2CCOCC2)c1 [Example 999, 2-cyclopropyl-N-(3-(6-(2-hydroxyethoxy)-5-morpholinopyridin-3-yl)-4-methylphenyl)isonicotinamide]
32 | 2.15 nM | Cc1ccc(NC(=O)c2ccnc(C(C)(F)F)c2)cc1-c1cnc(OCCO)c(N2CCOCC2)c1 [Example 1000, 2-(1,1-difluoroethyl)-N-(3-(6-(2-hydroxyethoxy)-5-morpholinopyridin-3-yl)-4-methylphenyl)isonicotinamide]
33 | 1.36 nM | Cc1ccc(NC(=O)c2cncc(C(F)(F)F)c2)cc1-c1cnc(OCCO)c(N2CCOCC2)c1 [Example 1001, N-(3-(6-(2-hydroxyethoxy)-5-morpholinopyridin-3-yl)-4-methylphenyl)-5-(trifluoromethyl)nicotinamide]
34 | 1.75 nM | Cc1ccc(NC(=O)c2ccnc(C(F)(F)F)c2)cc1-c1cnc(OCCO)c(N2CCOCC2)c1 [Example 1002, N-(3-(6-(2-hydroxyethoxy)-5-morpholinopyridin-3-yl)-4-methylphenyl)-2-(trifluoromethyl)isonicotinamide]
